# Reference: PubChem BioAssay AID1963825 (Molecular Pharmacology Branch, DTP, NCI, 2024)
# pIC50: −log10 of the molar value.
# Assay: Anticancer human tumor 997537-175-T-J1-PDC patient-derived colon adenocarcinoma cell line growth inhibition [POLQ]
# Details: 997537-175-T-J1-PDC complex spheroid viability, combination with POLQ inhibitors; for pIC50: curve of first compound; for viability, T/C: stronger effect = lower value
# Procedure, shortened: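 PDC + HUVEC + MSC complex spheroids; POLQ inhibitors ± partner drugs; top conc. at/near clinical Cmax, else 10 microM (SN-38 1 microM), half-log dilutions; 37 degrees C, 5% CO2.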
# [1] = second compound 0.0316 µM, first compound 0.0316 µM
# [2] = second compound 0.0316 µM, first compound 0.1 µM
# [3] = second compound 0.0316 µM, first compound 0.316 µM
# [4] = second compound 0.0316 µM, first compound 1 µM
# [5] = second compound 0.0316 µM, first compound 3.16 µM
# [6] = second compound 0.0316 µM, first compound 10 µM
# [7] = second compound 0.1 µM, first compound 0.0316 µM
# [8] = second compound 0.1 µM, first compound 0.1 µM
# [9] = second compound 0.1 µM, first compound 0.316 µM
# [10] = second compound 0.1 µM, first compound 1 µM
# [11] = second compound 0.1 µM, first compound 3.16 µM
# [12] = second compound 0.1 µM, first compound 10 µM
# [13] = second compound 0.316 µM, first compound 0.0316 µM
# [14] = second compound 0.316 µM, first compound 0.1 µM
# [15] = second compound 0.316 µM, first compound 0.316 µM
# [16] = second compound 0.316 µM, first compound 1 µM
# [17] = second compound 0.316 µM, first compound 3.16 µM
# [18] = second compound 0.316 µM, first compound 10 µM
# [19] = second compound 1 µM, first compound 0.0316 µM
# [20] = second compound 1 µM, first compound 0.1 µM
# [21] = second compound 1 µM, first compound 0.316 µM
# [22] = second compound 1 µM, first compound 1 µM
# [23] = second compound 1 µM, first compound 3.16 µM
# [24] = second compound 1 µM, first compound 10 µM
# [25] = second compound 3.16 µM, first compound 0.0316 µM
# [26] = second compound 3.16 µM, first compound 0.1 µM
# [27] = second compound 3.16 µM, first compound 0.316 µM
# [28] = second compound 3.16 µM, first compound 1 µM
# [29] = second compound 3.16 µM, first compound 3.16 µM
# [30] = second compound 3.16 µM, first compound 10 µM
# [31] = second compound 10 µM, first compound 0.0316 µM
# [32] = second compound 10 µM, first compound 0.1 µM
# [33] = second compound 10 µM, first compound 0.316 µM
# [34] = second compound 10 µM, first compound 1 µM
# [35] = second compound 10 µM, first compound 3.16 µM
# [36] = second compound 10 µM, first compound 10 µM
# 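Further: luminescence signal used as a surrogate for viable cells; spheroids exposed to drugs for seven days before readout.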
structure (smiles),measurement,setting,value
C#Cc1c(F)ccc2cc(O)cc(-c3ncc4c(N5CC6CCC(C5)N6)nc(OCC56CCCN5CC(F)C6)nc4c3F)c12 (centres undefined) + Nc1ccc(C#CCN(C(=O)Cc2ncc(C(F)(F)F)cc2C(F)(F)F)c2ccc(F)cc2)nn1,pIC50,second compound 0.0316 µM,< 5.00
same,pIC50,second compound 0.1 µM,< 5.00
same,pIC50,second compound 0.316 µM,< 5.00
same,pIC50,second compound 1 µM,< 5.00
same,pIC50,second compound 3.16 µM,< 5.00
same,pIC50,second compound 10 µM,< 5.00
same,"viability, T/C",[1],92.4%
same,"viability, T/C",[2],93%
same,"viability, T/C",[3],108%
same,"viability, T/C",[4],106%
same,"viability, T/C",[5],102%
same,"viability, T/C",[6],96.5%
same,"viability, T/C",[7],101%
same,"viability, T/C",[8],110%
same,"viability, T/C",[9],101%
same,"viability, T/C",[10],86.8%
same,"viability, T/C",[11],94.1%
same,"viability, T/C",[12],96.7%
same,"viability, T/C",[13],105%
same,"viability, T/C",[14],105%
same,"viability, T/C",[15],101%
same,"viability, T/C",[16],96.9%
same,"viability, T/C",[17],103%
same,"viability, T/C",[18],110%
same,"viability, T/C",[19],106%
same,"viability, T/C",[20],103%
same,"viability, T/C",[21],95.8%
same,"viability, T/C",[22],82.8%
same,"viability, T/C",[23],106%
same,"viability, T/C",[24],98.1%
same,"viability, T/C",[25],94.9%
same,"viability, T/C",[26],103%
same,"viability, T/C",[27],99.5%
same,"viability, T/C",[28],92.7%
same,"viability, T/C",[29],104%
same,"viability, T/C",[30],107%
same,"viability, T/C",[31],104%
same,"viability, T/C",[32],102%
same,"viability, T/C",[33],100%
same,"viability, T/C",[34],112%
same,"viability, T/C",[35],98.8%
same,"viability, T/C",[36],110%
CCc1cc2c(N3CCc4c(cc(Cn5ccnc5)cc4-c4cn(C)nc4C(F)(F)F)C3=O)ccnc2c(OC)n1 + Cc1cccc(N(C)C(=O)C2C(O)CCN2c2nc(C)cc(C(F)(F)F)c2C#N)c1,pIC50,second compound 0.0316 µM,< 5.00
same,pIC50,second compound 0.1 µM,< 5.00
same,pIC50,second compound 0.316 µM,< 5.00
same,pIC50,second compound 1 µM,< 5.00
same,pIC50,second compound 3.16 µM,< 5.00
same,pIC50,second compound 10 µM,< 5.00
same,"viability, T/C",[1],104%
same,"viability, T/C",[2],107%
same,"viability, T/C",[3],90.7%
same,"viability, T/C",[4],93.2%
same,"viability, T/C",[5],90.6%
same,"viability, T/C",[6],73.4%
same,"viability, T/C",[7],110%
same,"viability, T/C",[8],110%
same,"viability, T/C",[9],94.8%
same,"viability, T/C",[10],95.5%
same,"viability, T/C",[11],71%
same,"viability, T/C",[12],58.3%
same,"viability, T/C",[13],107%
same,"viability, T/C",[14],108%
same,"viability, T/C",[15],86.2%
same,"viability, T/C",[16],72%
same,"viability, T/C",[17],78.5%
same,"viability, T/C",[18],65.5%
same,"viability, T/C",[19],95.9%
same,"viability, T/C",[20],104%
same,"viability, T/C",[21],100%
same,"viability, T/C",[22],83.3%
same,"viability, T/C",[23],64.9%
same,"viability, T/C",[24],66.5%
same,"viability, T/C",[25],83.9%
same,"viability, T/C",[26],86.9%
same,"viability, T/C",[27],96.3%
same,"viability, T/C",[28],81.5%
same,"viability, T/C",[29],81.7%
same,"viability, T/C",[30],70.1%
same,"viability, T/C",[31],87.8%
same,"viability, T/C",[32],92.7%
same,"viability, T/C",[33],79.5%
same,"viability, T/C",[34],67.1%
same,"viability, T/C",[35],64.1%
same,"viability, T/C",[36],75.2%
